{"source": "paper PMC9436819", "about": "(JACC: Basic to Translational Science, 2022)", "origin": "cited, not measured here", "key": {"[1]": {"system": "patients with obstructive HCM", "parameters": "method as in PMID 32871100", "conditions": "cited from earlier work"}, "[2]": {"parameters": "method as in PMID 30044681, PMID 31035291", "conditions": "cited from earlier work"}}}
{"smiles": "CC(C)n1c(=O)cc(N[C@@H](C)c2ccccc2)[nH]c1=O", "note": "[Mavacamten]", "values": [{"measurement": "LV outflow tract pressure gradients", "setting": "[1]", "value": "reduced"}, {"measurement": "Improving exercise capacity and health status", "setting": "[1]; vs placebo", "value": "superior to placebo"}, {"measurement": "Time required to reach a steady state", "setting": "[2]", "value": 6, "unit": "weeks"}]}
